Test results taken from patent US20230288403A1, “METHOD FOR INDUCING EXTRACELLULAR TRAP (ET) FORMATION” (Tridek-One Therapeutics, priority 2022, published 2023).
“Also recorded” adds a separate entry of the source.

Assays:
Type in all cases: cell-based
[1] = test system: human peripheral whole blood; experiment: ET formation in diluted whole blood, live cell fluorescent microscopy (Sytox Green); conditions: 5 μM inhibitor; 20 μg/mL of human polyvalent Ig; whole blood 1/10 dilution
Method: (§1) High-binding, sterile 96-well plates (Greiner Bio-One, Frickenhausen, Germany) were coated with human polyvalent Ig as described in Example 1, using a coating solution comprising human polyvalent Ig at a concentration ranging from 10 to 80 μg/mL, as indicated.
Where indicated, the SYK inhibitor BAY-61-3606, obtained from Selleckchem (reference: S7006), was added to the whole blood samples diluted in culture medium at a final concentration of 5 μM.
Fresh human peripheral whole blood was collected from healthy donors and diluted ten times (1/10 dilution) in culture medium containing cell-impermeant, nucleic acid dye Sytox Green at a concentration of 1 μM to detect ET formation. Diluted whole blood was then distributed in 96-well plates (Greiner Bio-One, Frickenhausen, Germany), in particular in 96-well plates coated with human polyvalent Ig or bovine serum albumin (negative control) as described above.
Time-lapse images were acquired by live cell fluorescent microscopy. Quantitative time-course measure of ET formation was performed by computer-assisted image analysis (data are expressed as GCU/well).

[2] = test system: human peripheral blood neutrophils; experiment: ROS formation with the oxidative-sensitive fluorescent probe CM-H2DCFDA, live cell imaging; conditions: inhibitor 0 to 5 μM; plates coated with 100 μg/mL human polyvalent Ig; 6 hours
Method: as §1, with “3” for “10”, “300” for “80”, “indicated. If no indication is given, deposits of human polyvalent Ig were obtained with a coating solution comprising human polyvalent Ig at a concentration of 100 μg/mL.” for “indicated.”
Where indicated, the SYK inhibitor BAY-61-3606, obtained from Selleckchem (reference: S7006), was added to the culture medium at a final concentration ranging from 0.05 to 5 (0.05, 0.1, 0.5, 1, 5 as indicated). Where indicated, the calcineurin inhibitor FK506 (also known as tacrolimus), obtained from ASTELLAS PHARMA (PROGRAF™ 5 mg/ml), was added to the culture medium at a final concentration ranging from 0.3 to 100 nM (0.3, 1, 3, 10, 30, 100 nM, as indicated). Where indicated, the humanized monoclonal antibody motavizumab directed against the respiratory syncytial virus (RSV), produced as a human IgG4 (by Evitria, Zurich, Switzerland), was added to the culture medium at a final concentration ranging from 1 to 100 μg/mL (1, 3, 10, 30, 100 μg/mL, as indicated). […]
Time-lapse images were acquired by live cell fluorescent microscopy. Quantitative time-course measure of ROS and NET formation was performed by computer-assisted image analysis (data are expressed as GCU/well).

[3] = test system: human peripheral blood neutrophils; experiment: NET formation by live cell fluorescent microscopy (Sytox Green) with computer-assisted image analysis
Method: (§2) Human polyvalent immunoglobulins (or human polyvalent Ig) also referred to as intravenous immunoglobulin or IVIg (Privigen, CSL Behring LLC) or human serum albumin or HSA (Sigma Aldrich—reference: H5667), used as negative control, diluted in coating solution (DPBS Gibco—reference: 14190) were allowed to adsorb for 2 hours at room temperature on high-binding, sterile 96-well plates suitable for fluorescence microscopy (Greiner Bio-One, Frickenhausen, Germany). Unless indicated otherwise, deposits of human polyvalent Ig were obtained with a coating solution (DPBS no calcium, no magnesium (ThermoFisher—reference: 14190) consisting of KCl 2.67 mM, KH2PO4 1.47 mM, NaCl 137.9 mM, Na2HPO4-7H2O 8.06 mM) comprising human polyvalent Ig at a concentration of 100 μg/mL. Similarly, unless indicated otherwise, deposits of HSA were obtained with a coating solution comprising HSA at a concentration of 100 μg/mL. Phorbol-12-myristate-13-acetate or PMA (Sigma Aldrich—reference: P8139) was used as positive control. PMA was added to the culture medium at a final concentration of nM. In some experiments (see FIG. 5A), human polyvalent Ig were added in the culture medium at a final concentration ranging from 3 to 300 μg/mL.
(§3) Neutrophils were isolated from the peripheral blood of healthy human donors by negative magnetic bead selection using a commercially available kit (STEMCELL Technologies—reference: 19666). Isolated neutrophils were then distributed in 96-well plates (Greiner Bio-One, Frickenhausen, Germany), in particular in 96-well plates coated with human polyvalent Ig or HSA as described above, at a concentration of 7.5×10^4 cells per well, corresponding to 10^6 cells/mL of culture medium. Neutrophils were then cultured in HBSS with calcium and magnesium (Gibco—reference: 24020-091) under standard conditions (i.e., humidified incubator 37° C. and 5% CO2). […]
as §1, with “3” for “10”, “300” for “80”, “indicated. If no indication is given, deposits of human polyvalent Ig were obtained with a coating solution comprising human polyvalent Ig at a concentration of 100 μg/mL.” for “indicated.”
Where indicated, the SYK inhibitor BAY-61-3606, obtained from Selleckchem (reference: S7006), was added to the culture medium at a final concentration ranging from 0.05 to 5 (0.05, 0.1, 0.5, 1, 5 as indicated). Where indicated, the calcineurin inhibitor FK506 (also known as tacrolimus), obtained from ASTELLAS PHARMA (PROGRAF™ 5 mg/ml), was added to the culture medium at a final concentration ranging from 0.3 to 100 nM (0.3, 1, 3, 10, 30, 100 nM, as indicated). Where indicated, the humanized monoclonal antibody motavizumab directed against the respiratory syncytial virus (RSV), produced as a human IgG4 (by Evitria, Zurich, Switzerland), was added to the culture medium at a final concentration ranging from 1 to 100 μg/mL (1, 3, 10, 30, 100 μg/mL, as indicated). Human IgG4 can engage FcRI (CD64) and enhance the activation of human neutrophils triggered by immobilized immunoglobulins, which is mediated by FcRIIa and FcRIIIb, by the engagement of an additional signaling pathway.
Human peripheral blood neutrophils were isolated and cultured as described in Example 1. In particular, freshly isolated peripheral blood neutrophils were distributed in coated plate as described in Example 1 (7.5×10^4 cells per well, corresponding to 10^6 cells/mL of culture medium) and cultured for the indicated time.
The fluorescent, cell-impermeant, nucleic acid dye Sytox Green was added to the culture medium at a concentration of 1 μM to detect NET formation. ROS (reactive oxygen species) formation was identified by the use of a fluorescent oxidative-sensitive probe (CM-H2DCFDA, ThermoFisher Scientific—reference: C6827). […]

[4] = test system: human peripheral blood eosinophils; experiment: EET formation by eosinophils, live cell fluorescent microscopy (Sytox Green); conditions: 5 μM inhibitor; 100 μg/mL of human polyvalent Ig
Method: High-binding, sterile 96-well plates (Greiner Bio-One, Frickenhausen, Germany) were coated with human polyvalent Ig as described in Example 1, using a coating solution comprising human polyvalent Ig at a concentration ranging from 10 to 300 μg/mL, as indicated.
Where indicated, the SYK inhibitor BAY-61-3606, obtained from Selleckchem (reference: S7006), was added to the culture medium at a final concentration of 5 μM.
as §3, with “Eosinophils” for “Neutrophils”, “19656).” for “19666).”, “eosinophils” for “neutrophils”, “bovine serum albumin (negative control)” for “HSA”, “1.5×10^4” for “7.5×10^4”, “2×10^5” for “10^6”
Time-lapse images were acquired by live cell fluorescent microscopy. Quantitative time-course measure of EET formation was performed by computer-assisted image analysis (data are expressed as GCU/well).

[5] = test system: human peripheral blood neutrophils; experiment: NET detection in fixed neutrophils by fluorescence microscopy (Sytox Green, nuclear morphology); conditions: 4 hours of culture, plate-bound human polyvalent Ig (coating solution 100 μg/mL) or PMA (25 nM) in culture medium
Method: as §2, with “300 μg/mL. […]” for “300 μg/mL.”
Images were acquired by fluorescence microscopy in the green channel. […]

[6] = 24-hour live imaging, plate-bound human polyvalent Ig (coating solution 100 μg/mL) or PMA 25 nM

## COc1ccc(-c2cc3nccn3c(Nc3ncccc3C(N)=O)n2)cc1OC [BAY-61-3606]
[1]
  ET formation induced by immobilized human polyvalent Ig: no ET formation
[2]
  ROS production induced by immobilized human polyvalent Ig: decreased
[3]; inhibitor 0 to 5 μM, plates coated with 100 μg/mL human polyvalent Ig, 6 hours
  NET formation induced by immobilized human polyvalent Ig: decreased
[3]; inhibitor at a concentration of 5, 100 μg/mL motavizumab and immobilized human polyvalent Ig (100 μg/mL coating)
  NET formation elicited by motavizumab plus immobilized human polyvalent Ig: completely abolishes the NET formation
[4]
  EET formation induced by immobilized human polyvalent Ig: no EET formation

## CCCCCCCCCCCCCC(=O)O[C@@H]1[C@@H](C)[C@@]2(O)[C@@H](C=C(CO)C[C@]3(O)C(=O)C(C)=C[C@@H]23)[C@@H]2C(C)(C)[C@]12OC(C)=O [PMA, phorbol 12-myristate 13-acetate]
[5]
  NET formation (nuclear morphology of neutrophils): most neutrophils displayed signs of NETosis
[3]; [6]
  NET formation rate change: causes NET formation from all neutrophils at once
  NET formation time course: NET induction was visible on almost all neutrophils from 3-hour culture; also recorded: drives the simultaneous formation of NETs from a great number of neutrophils, within as soon as 3 hours of culture

B1: motavizumab: humanized monoclonal antibody directed against the respiratory syncytial virus (RSV), produced as a human IgG4 (antibody, chains of the INN, looked up, V domains shown)
VH: QVTLRESGPALVKPTQTLTLTCTFSGFSLSTAGMSVGWIRQPPGKALEWLADIWWDDKKHYNPSLKDRLTISKDTSKNQVVLKVTNMDPADTATYYCARDMIFNFYFDVWGQGTTVTVSS
VL: DIQMTQSPSTLSASVGDRVTITCSASSRVGYMHWYQQKPGKAPKLLIYDTSKLASGVPSRFSGSGSGTEFTLTISSLQPDDFATYYCFQGSGYPFTFGGGTKVEIK
modifications: IgG4
notes: humanized monoclonal antibody directed against the respiratory syncytial virus (RSV), produced as a human IgG4
[3]; antibody 0 to 100 μg/mL in culture medium, plates coated with 100 μg/mL human polyvalent Ig, compared to coated IVIG without motavizumab
  NET formation in presence of immobilized human polyvalent Ig: drives a proportional increase in the formation of NETs
[3]; antibody 0 to 100 μg/mL in culture medium, uncoated 96-well plates
  NET formation in absence of immobilized immunoglobulins: is not able to drive the formation of NETs
